Test results reported in patent US7341726B2, “Modified HCV peptide immunogens” (The United States of America as represented by the …, priority 1998, dated 2008).
Entries after “also recorded” stand apart in the source; their conditions may differ.

Columns and labels:
[1] = biological target: T1, HLA-A2.1 (Homo sapiens, UniProt P04439, D140Y/D185E/D98H/E176V/E277Q/G131W/G231S/I119V/I121R/I166T/I218V/L300P/L318F/N151K/N90K/P208A/P217A/Q86G/Q94H/R138H/R169H/T345S); experiment: T2 binding assay: peptide stabilisation of cell-surface HLA-A2.1 (flow cytometry, BB7.2); settings: T2 cells; for FI0.5, the peptide concentration that increases HLA-A2.1 expression by 50% over no peptide control: overnight, with β2-microglobulin
T1 construct: The T2 cell line is deficient in TAP1 and TAP2 transporter proteins and expresses low levels of HLA-A2.1; endogenous in cells; host or cells: T2 cell line (TAP1/TAP2-deficient)
Method: FIGS. 1A and 1B. Binding of C7A2 Alanine (A) and non-Alanine (B)-substituted peptides to TAP-deficient HLA-A2.1. T2 cells were incubated overnight in a 96 well plate in CTM with 10 Φg/ml human β2-microglobulin and different peptide concentrations. The next day, cells were washed and HLA-A2.1 expression was assessed by flow cytometry using the anti HLA-A2 BB7.2 monoclonal antibody and FITC labeled goat anti mouse Ig. Results are expressed as fluorescence index (FI), calculated according to the formula: (mean fluorescence with peptide−mean fluorescence without peptide)/mean fluorescence without peptide. Background fluorescence without BB7.2 was subtracted for each individual value. FI0.5 represents those peptide concentrations that increase HLA-A2.1 expression by 50% over the no peptide control and were calculated from the titration curves for each particular peptide.
Peptide binding to HLA molecules was measured using the T2 mutant cell line according to a protocol previously described (53). T2 cells (3×10/well) were incubated overnight in 96-well plates with culture medium (1:1 mixture of RPMI 1640: EHAA containing 2.5% FBS, 100 U/ml penicillin, 100 Φg/ml streptomycin) with 10 Φg/ml β2-microglobulin (Sigma Chemical Co; St. Louis, Mo.) and different peptide concentrations. The next day, cells were washed twice with cold PBS containing 2% FBS and incubated for 30 min at 4 EC with anti HLA-A2.1 BB7.2 monoclonal antibody (1/80 dilution from hybridoma supernatant) and 5 Φg/ml FITC-labeled goat anti mouse Ig (Pharmingen; San Diego, Calif.). Cells were washed twice after each incubation and HLA-A2.1 expression was measured by flow cytometry on a FACScan (Becton Dickinson). HLA-A2.1 expression was quantified as fluorescence index (FI) according to the formula: FI=(mean fluorescence with peptide—mean fluorescence without peptide)/mean fluorescence without peptide. Background fluorescence without BB7.2 antibody was subtracted for each individual value. In order to compare the different peptides, FI0.5, the peptide concentration that increases HLA-A2.1 expression by 50% over no peptide control background, was calculated from the titration curve for each peptide.
The binding affinity of wild-type C7A2 peptide (C7A2-WT) was evaluated with a T2 binding assay (53), which measures the cell surface stabilization of HLA-A2.1 molecules after incubation with peptide. In order to compare the different peptides, a fluorescence index value of 0.5 (FI0.5), the peptide concentration that increases HLA-A2.1 expression by 50%, was chosen as a way to compare titrations of the peptides and relative affinity for MHC molecules. Using this method, FI0.5 of 10 ΦM was calculated for C7A2-WT.

[2] = tested on: human CTL line ViT2; experiment: Recognition of C7A2-variant peptides by human CTL line ViT2 (51Cr release, C1R.A2.1 targets); type: cell-based; settings: for Recognition by human CTL line (lysis of peptide-sensitized target cells): E/T 5/1, peptide titration
[3] = tested on: transgenic AAD mouse CTL lines AAD.10 and AAD.1; experiment: Recognition of C7A2-variant peptides by AAD transgenic mouse CTL lines (51Cr release, C1R.AAD targets); type: cell-based; settings: lines AAD.10 and AAD.1, C1R.AAD targets, E/T 10/1
[4] = tested on: AAD transgenic mice; experiment: In vivo immunogenicity of C7A2-derived peptides in AAD transgenic mice (CTL assay); set-up: species or system mouse; settings: 50 nmol CTL epitope plus helper epitope, GM-CSF, IL-12 in IFA; targets pulsed with immunizing peptide
[5] = tested on: AAD transgenic mice; experiment: Induction of CTL immune response against C7A2-WT in AAD transgenic mice; type: in vivo, mouse; settings: 50 or 15 nmol CTL epitope; for CTL response to C7A2-WT after immunization: targets pulsed with C7A2-WT
Excerpt: FIGS. 5A and 5B. […] Two weeks later, mice were boosted under the same conditions and 10-14 days after the boost, spleen cells were removed and stimulated in vitro with 10 ΦM CTL peptide-pulsed spleen cells.

[6] = tested on: A2Kb transgenic mice; experiment: Induction of CTL immune response against C7A2-WT in A2Kb transgenic mice; type: in vivo, mouse; settings: 50 nmol, E/T 120:1 for C7A2-WT, 70:1 for 8A
Excerpt: FIG. 6. […] Two weeks later, mice were boosted under the same conditions and 10-14 days after the boost, spleen cells were removed and stimulated in vitro with 10 ΦM CTL peptide-pulsed spleen cells.

[7] = tested on: short term CTL lines from AAD transgenic mice; settings: C1R.AAD targets titrated with C7A2-WT, E:T 10:1
Excerpt: FIG. 7. […] Two weeks later, mice were boosted under the same conditions and 10-14 days after the boost, spleen cells were removed and stimulated in vitro with 10 ΦM CTL peptide-pulsed spleen cells.

[8] = tested on: A2Kb transgenic mice; settings: 50 nmol, targets with 10 ΦM peptide
Method: (§1) FIGS. 8A and 8B. […] AAD (A) and A2Kb (B) transgenic mice were immunized with 50 nmol CTL epitope 8A plus 50 nmol HBVc 128-140 helper epitope in IFA. Two weeks later, mice were boosted under the same conditions and 10-14 days after the boost, spleen cells were removed and stimulated in vitro with 10 ΦM CTL peptide-pulsed spleen cells. After two weeks of in vitro stimulation, a CTL assay was performed with target cells (Con A blasts) incubated with the different peptides at 10 ΦM.
(§2) This peptide is common in viral isolates from HCV genotypes 2a and 2b (56,57).

[9] = tested on: AAD transgenic mice; settings: 50 nmol, targets with 10 ΦM peptide
Method: as §1, §2

Substance	FI0.5, the peptide concentration that increases HLA-A2.1 expression by 50% over no peptide control [1]	Recognition by human CTL line (lysis of peptide-sensitized target cells) [2]	Recognition by AAD mouse CTL lines (sensitization of target cells) [3]	Binding to HLA-A2.1 (in words, compared with C7A2-WT) [1]	Titration concentration relative to C7A2-WT ([2]; human CTL line) [fold lower concentrations]	Induction of CTL response by immunization [4]	CTL response to 8A after immunization ([5]; targets pulsed with 8A)	CTL response to C7A2-WT after immunization [5]	CTL immune response after immunization [6]	C7A2-WT concentration for comparable killing, CTL raised against 8A versus CTL raised against C7A2-WT [7]	Cross-recognition of peptide 8V by CTL induced by immunization [8]	Cross-recognition of peptide 8V by CTL induced by immunization [9]
8V: C7A2 peptide with position 8 L replaced by V; sequence common in HCV genotypes 2a and 2b (DLMGYIPVV) [Peptide 8V, reference compound]	15 ΦM	behaved similarly to C7A2-WT	recognized at higher concentrations than determined for C7A2-WT	–	–	–	–	–	–	–	–	–
DLMGYIPAV [Peptide 8A]	around 2 ΦM	higher levels of lysis than C7A2-WT	able to sensitize target cells in a concentration range around that of C7A2-WT	higher affinity; also recorded: bind at lower concentrations than C7A2-WT	10	able to induce clear CTL responses; also recorded: induced higher levels of lysis	positive responses to 8A itself	strong responses to C7A2-WT	higher level of response	more than 100 fold lower	recognize peptide 8V	recognize peptide 8V
DLMGYIPLV [Peptide C7A2-WT, naturally occurring peptide at positions 132-140 in the HCV core polypeptide, reference compound]	10 ΦM	–	–	–	–	able to induce clear CTL responses	–	two of the four animals	low response	–	–	–
